Results from patent publication EP0908457B1, “3-(1,2-benzisothiazol- and isoxazol-5-Y1)-2,4(1H,3H)-pyrimidinedione or thione and 3-(1,2-benzisothiazol- and isoxazol-5-y1)-4(3H)-pyrimidinone or thione herbicidal agents” (BASF AKTIENGESELLSCHAFT, priority 1997, dated 1999).

Assays:
[1] = tested on: Monochoria vaginalis, Presl.; assay: Preemergence weed control under flooded paddy conditions, MOOVA (Monochoria); type: in vivo; conditions: flooded paddy, rated three to four weeks after treatment; for herbicidal effect rating, MOOVA: meaning of each grade not given here
Sagittaria pygmaea, L. = assay: Preemergence weed control under flooded paddy conditions, SAGPY (Arrowhead (Pygmaea)); type: in vivo; conditions: flooded paddy, rated three to four weeks after treatment; for herbicidal effect rating, SAGPY: meaning of each grade not given here
[2] = tested on: Oryza sativa, (L.) Tebonnet; assay: Rice tolerance to post-transplant applications under flooded paddy conditions (Example 187), ORYSAT (Rice, Tebonnet); conditions: rated three to four weeks after treatment
Cyperus iria = assay: Preemergence weed control under flooded paddy conditions, CYPIR (Rice Flatsedge); type: in vivo; conditions: flooded paddy, rated three to four weeks after treatment; for herbicidal effect rating, CYPIR: meaning of each grade not given here
[3] = tested on: Echinochloa oryzoides (Ard.) Fritsch.; assay: Preemergence weed control under flooded paddy conditions, ECHORC (Watergrass (Calif.)); type: in vivo; conditions: flooded paddy, rated three to four weeks after treatment; for herbicidal effect rating, ECHORC: meaning of each grade not given here
[4] = tested on: Cyperus serotinus, Rottb.; assay: Preemergence weed control under flooded paddy conditions, CYPSE (Flatsedge); type: in vivo; conditions: rated three to four weeks after treatment; for herbicidal effect rating, CYPSE: meaning of each grade not given here
[5] = Rate 0.0320 kg/ha, preemergence
[6] = Rate 0.0620 kg/ha, preemergence
[7] = Rate 0.1250 kg/ha, preemergence
[8] = Rate 0.2500 kg/ha, preemergence
[9] = Rate 0.0320 kg/ha, preemergence weeds
[10] = Rate 0.0620 kg/ha, preemergence weeds
[11] = Rate 0.1250 kg/ha, preemergence weeds
[12] = Rate 0.2500 kg/ha, preemergence weeds
[13] = Rate 0.5000 kg/ha, preemergence

SMILES: C=CCOC(=O)COc1ccc(C)cc1-c1nsc2ccc(-n3c(=O)cc(C(F)(F)F)n(C)c3=O)cc12 [Example 69, Allyl {{2-{5-[3,6-dihydro-3-methyl-2,6-dioxo-4-(trifluoromethyl)-1(2H)-pyrimidinyl]-1,2-benzisothiazol-3-yl}-p-tolyl}oxy}acetate]
- herbicidal effect rating, MOOVA ([1]; 0.0313 kg/ha, preemergence): 9.0
- herbicidal effect rating, MOOVA ([1]; 0.0625 kg/ha, preemergence): 9.0
- herbicidal effect rating, MOOVA ([1]; 0.1250 kg/ha, preemergence): 9.0
- herbicidal effect rating, MOOVA ([1]; 0.2500 kg/ha, preemergence): 9.0
- herbicidal effect rating, SAGPY (Sagittaria pygmaea, L.; 0.0313 kg/ha, preemergence): 0.0
- herbicidal effect rating, SAGPY (Sagittaria pygmaea, L.; 0.0625 kg/ha, preemergence): 0.0
- herbicidal effect rating, SAGPY (Sagittaria pygmaea, L.; 0.1250 kg/ha, preemergence): 2.0
- herbicidal effect rating, SAGPY (Sagittaria pygmaea, L.; 0.2500 kg/ha, preemergence): 9.0
- herbicidal effect rating, ORYSAT (rice tolerance) ([2]; 0.0313 kg/ha): 3.5
- herbicidal effect rating, ORYSAT (rice tolerance) ([2]; 0.0625 kg/ha): 5.0
- herbicidal effect rating, ORYSAT (rice tolerance) ([2]; 0.1250 kg/ha): 6.5
- herbicidal effect rating, ORYSAT (rice tolerance) ([2]; 0.2500 kg/ha): 8.0
- herbicidal effect rating, CYPIR (Cyperus iria; 0.0313 kg/ha, preemergence): 0.0
- herbicidal effect rating, CYPIR (Cyperus iria; 0.0625 kg/ha, preemergence): 2.0
- herbicidal effect rating, CYPIR (Cyperus iria; 0.1250 kg/ha, preemergence): 4.0
- herbicidal effect rating, CYPIR (Cyperus iria; 0.2500 kg/ha, preemergence): 7.0
- herbicidal effect rating, ECHORC ([3]; 0.0313 kg/ha, preemergence): 9.0
- herbicidal effect rating, ECHORC ([3]; 0.0625 kg/ha, preemergence): 9.0
- herbicidal effect rating, ECHORC ([3]; 0.1250 kg/ha, preemergence): 9.0
- herbicidal effect rating, ECHORC ([3]; 0.2500 kg/ha, preemergence): 9.0
- herbicidal effect rating, CYPSE ([4]; 0.0313 kg/ha, preemergence): 0.0
- herbicidal effect rating, CYPSE ([4]; 0.0625 kg/ha, preemergence): 0.0
- herbicidal effect rating, CYPSE ([4]; 0.1250 kg/ha, preemergence): 2.0
- herbicidal effect rating, CYPSE ([4]; 0.2500 kg/ha, preemergence): 9.0

SMILES: Cn1c(C(F)(F)F)cc(=O)n(-c2ccc3snc(COCc4ccc(Cl)cc4)c3c2)c1=O [Example 584, 2,4(1H,3H)-Pyrimidinedione, 3-{3-{[(p-chlorobenzyl)oxy]methyl}-1,2-benzisothiazol-5-yl}-1-methyl-6-(trifluoromethyl)-]
- herbicidal effect rating, MOOVA [1, 5]: 3.0
- herbicidal effect rating, MOOVA [1, 6]: 8.0
- herbicidal effect rating, MOOVA [1, 7]: 9.0
- herbicidal effect rating, MOOVA [1, 8]: 9.0
- herbicidal effect rating, SAGPY (Sagittaria pygmaea, L.; [5]): 0.0
- herbicidal effect rating, SAGPY (Sagittaria pygmaea, L.; [6]): 1.5
- herbicidal effect rating, SAGPY (Sagittaria pygmaea, L.; [7]): 4.0
- herbicidal effect rating, SAGPY (Sagittaria pygmaea, L.; [8]): 2.0
- herbicidal effect rating ORYSAT ([2]; Rate 0.0320 kg/ha): 0.0
- herbicidal effect rating ORYSAT ([2]; Rate 0.0620 kg/ha): 1.0
- herbicidal effect rating ORYSAT ([2]; Rate 0.1250 kg/ha): 1.0
- herbicidal effect rating ORYSAT ([2]; Rate 0.2500 kg/ha): 3.5
- herbicidal effect rating, CYPIR (Cyperus iria; [5]): 1.5
- herbicidal effect rating, CYPIR (Cyperus iria; [6]): 6.0
- herbicidal effect rating, CYPIR (Cyperus iria; [7]): 9.0
- herbicidal effect rating, CYPIR (Cyperus iria; [8]): 9.0
- herbicidal effect rating, ECHORC [3, 5]: 6.0
- herbicidal effect rating, ECHORC [3, 6]: 9.0
- herbicidal effect rating, ECHORC [3, 7]: 9.0
- herbicidal effect rating, ECHORC [3, 8]: 9.0
- herbicidal effect rating, CYPSE [4, 5]: 0.0
- herbicidal effect rating, CYPSE [4, 6]: 0.0
- herbicidal effect rating, CYPSE [4, 8]: 0.0

SMILES: CC(C)NC(=O)c1nsc2ccc(-n3c(=O)cc(C(F)(F)F)n(C)c3=O)cc12 [Example 330, 1,2-Benzisothiazole-3-carboxamide, 5-[3,6-dihydro-3-methyl-2,6-dioxo-4-(trifluoromethyl)-1(2H)-pyrimidinyl]-N-isopropyl-]
- herbicidal effect rating, MOOVA [1, 9]: 9.0
- herbicidal effect rating, MOOVA [1, 10]: 9.0
- herbicidal effect rating, MOOVA [1, 11]: 9.0
- herbicidal effect rating, MOOVA [1, 12]: 9.0
- herbicidal effect rating, SAGPY (Sagittaria pygmaea, L.; [9]): 0.0
- herbicidal effect rating, SAGPY (Sagittaria pygmaea, L.; [10]): 0.0
- herbicidal effect rating, SAGPY (Sagittaria pygmaea, L.; [11]): 0.0
- herbicidal effect rating, SAGPY (Sagittaria pygmaea, L.; [12]): 0.0
- herbicidal effect rating ORYSAT ([2]; Rate 0.0320 kg/ha): 7.0
- herbicidal effect rating ORYSAT ([2]; Rate 0.0620 kg/ha): 7.0
- herbicidal effect rating ORYSAT ([2]; Rate 0.1250 kg/ha): 7.0
- herbicidal effect rating ORYSAT ([2]; Rate 0.2500 kg/ha): 7.0
- herbicidal effect rating, CYPIR (Cyperus iria; [9]): 0.0
- herbicidal effect rating, CYPIR (Cyperus iria; [10]): 0.0
- herbicidal effect rating, CYPIR (Cyperus iria; [11]): 6.0
- herbicidal effect rating, CYPIR (Cyperus iria; [12]): 6.0
- herbicidal effect rating, ECHORC [3, 9]: 7.0
- herbicidal effect rating, ECHORC [3, 10]: 7.0
- herbicidal effect rating, ECHORC [3, 11]: 9.0
- herbicidal effect rating, ECHORC [3, 12]: 9.0
- herbicidal effect rating, CYPSE [4, 9]: 5.0
- herbicidal effect rating, CYPSE [4, 10]: 5.0
- herbicidal effect rating, CYPSE [4, 11]: 5.0
- herbicidal effect rating, CYPSE [4, 12]: 5.0

SMILES: Cn1c(C(F)(F)F)cc(=O)n(-c2ccc3snc(C=C(Br)Br)c3c2)c1=O [Example 284, 2,4(1H,3H)-Pyrimidinedione, 3-[3-(2,2-dibromovinyl)-1,2-benzisothiazol-5-yl]-1-methyl-6-(trifluoromethyl)-]
- MOOVA herbicidal effect rating [1, 5]: 4.0
- MOOVA herbicidal effect rating [1, 6]: 9.0
- MOOVA herbicidal effect rating [1, 7]: 9.0
- MOOVA herbicidal effect rating [1, 8]: 9.0
- SAGPY herbicidal effect rating (Sagittaria pygmaea, L.; [5]): 0.0
- SAGPY herbicidal effect rating (Sagittaria pygmaea, L.; [6]): 0.0
- SAGPY herbicidal effect rating (Sagittaria pygmaea, L.; [7]): 0.0
- SAGPY herbicidal effect rating (Sagittaria pygmaea, L.; [8]): 0.0
- ORYSAT herbicidal effect rating ([2]; Rate 0.0320 kg/ha): 0.0
- ORYSAT herbicidal effect rating ([2]; Rate 0.0620 kg/ha): 0.0
- ORYSAT herbicidal effect rating ([2]; Rate 0.1250 kg/ha): 0.0
- ORYSAT herbicidal effect rating ([2]; Rate 0.2500 kg/ha): 0.0
- CYPIR herbicidal effect rating (Cyperus iria; [5]): 4.0
- CYPIR herbicidal effect rating (Cyperus iria; [6]): 9.0
- CYPIR herbicidal effect rating (Cyperus iria; [7]): 9.0
- CYPIR herbicidal effect rating (Cyperus iria; [8]): 9.0
- ECHORC herbicidal effect rating [3, 5]: 0.0
- ECHORC herbicidal effect rating [3, 6]: 0.0
- ECHORC herbicidal effect rating [3, 7]: 0.0
- ECHORC herbicidal effect rating [3, 8]: 0.0
- CYPSE herbicidal effect rating [4, 5]: 0.0
- CYPSE herbicidal effect rating [4, 6]: 0.0
- CYPSE herbicidal effect rating [4, 7]: 2.0
- CYPSE herbicidal effect rating [4, 8]: 9.0

SMILES: Cn1c(C(F)(F)F)cc(=O)n(-c2ccc3onc(-c4ccccc4)c3c2)c1=O [Example 25, 1-Methyl-3-(3-phenyl-1,2-benzisoxazol-5-yl)-6-(trifluoromethyl)-2,4(1H,3H)-pyrimidinedione]
- herbicidal effect rating, MOOVA ([1]; 0.0313 kg/ha, preemergence): 9.0
- herbicidal effect rating, MOOVA ([1]; 0.0625 kg/ha, preemergence): 9.0
- herbicidal effect rating, MOOVA ([1]; 0.1250 kg/ha, preemergence): 9.0
- herbicidal effect rating, MOOVA ([1]; 0.2500 kg/ha, preemergence): 9.0
- herbicidal effect rating, SAGPY (Sagittaria pygmaea, L.; 0.0313 kg/ha, preemergence): 0.0
- herbicidal effect rating, SAGPY (Sagittaria pygmaea, L.; 0.0625 kg/ha, preemergence): 0.0
- herbicidal effect rating, SAGPY (Sagittaria pygmaea, L.; 0.1250 kg/ha, preemergence): 1.0
- herbicidal effect rating, SAGPY (Sagittaria pygmaea, L.; 0.2500 kg/ha, preemergence): 4.0
- herbicidal effect rating, ORYSAT (rice tolerance) ([2]; 0.0313 kg/ha): 4.0
- herbicidal effect rating, ORYSAT (rice tolerance) ([2]; 0.0625 kg/ha): 6.0
- herbicidal effect rating, ORYSAT (rice tolerance) ([2]; 0.1250 kg/ha): 7.0
- herbicidal effect rating, ORYSAT (rice tolerance) ([2]; 0.2500 kg/ha): 7.0
- herbicidal effect rating, CYPIR (Cyperus iria; 0.0313 kg/ha, preemergence): 9.0
- herbicidal effect rating, CYPIR (Cyperus iria; 0.0625 kg/ha, preemergence): 9.0
- herbicidal effect rating, CYPIR (Cyperus iria; 0.1250 kg/ha, preemergence): 9.0
- herbicidal effect rating, CYPIR (Cyperus iria; 0.2500 kg/ha, preemergence): 9.0
- herbicidal effect rating, ECHORC ([3]; 0.0313 kg/ha, preemergence): 7.0
- herbicidal effect rating, ECHORC ([3]; 0.0625 kg/ha, preemergence): 9.0
- herbicidal effect rating, ECHORC ([3]; 0.1250 kg/ha, preemergence): 9.0
- herbicidal effect rating, ECHORC ([3]; 0.2500 kg/ha, preemergence): 9.0
- herbicidal effect rating, CYPSE ([4]; 0.0313 kg/ha, preemergence): 0.0
- herbicidal effect rating, CYPSE ([4]; 0.0625 kg/ha, preemergence): 2.0
- herbicidal effect rating, CYPSE ([4]; 0.1250 kg/ha, preemergence): 7.0
- herbicidal effect rating, CYPSE ([4]; 0.2500 kg/ha, preemergence): 8.0

SMILES: CO/N=C/c1nsc2ccc(-n3c(=O)cc(C(F)(F)F)n(C)c3=O)cc12 [Example 277, 1,2-Benzisothiazole-3-carboxaldehyde, 5-[3,6-dihydro-3-methyl-2,6-dioxo-4-(trifluoromethyl)-1(2H)-pyrimidinyl]-, 3-(O-methyloxime), (E)-]
- MOOVA herbicidal effect rating [1, 5]: 9.0
- MOOVA herbicidal effect rating [1, 6]: 9.0
- MOOVA herbicidal effect rating [1, 7]: 9.0
- MOOVA herbicidal effect rating [1, 8]: 9.0
- MOOVA herbicidal effect rating [1, 13]: 9.0
- SAGPY herbicidal effect rating (Sagittaria pygmaea, L.; [5]): 6.0
- SAGPY herbicidal effect rating (Sagittaria pygmaea, L.; [6]): 8.0
- SAGPY herbicidal effect rating (Sagittaria pygmaea, L.; [7]): 9.0
- SAGPY herbicidal effect rating (Sagittaria pygmaea, L.; [8]): 9.0
- SAGPY herbicidal effect rating (Sagittaria pygmaea, L.; [13]): 9.0
- ORYSAT herbicidal effect rating ([2]; Rate 0.0320 kg/ha): 5.0
- ORYSAT herbicidal effect rating ([2]; Rate 0.0620 kg/ha): 7.0
- ORYSAT herbicidal effect rating ([2]; Rate 0.1250 kg/ha): 7.0
- ORYSAT herbicidal effect rating ([2]; Rate 0.2500 kg/ha): 8.0
- ORYSAT herbicidal effect rating ([2]; Rate 0.5000 kg/ha): 9.0
- CYPIR herbicidal effect rating (Cyperus iria; [5]): 9.0
- CYPIR herbicidal effect rating (Cyperus iria; [6]): 9.0
- CYPIR herbicidal effect rating (Cyperus iria; [7]): 9.0
- CYPIR herbicidal effect rating (Cyperus iria; [8]): 9.0
- CYPIR herbicidal effect rating (Cyperus iria; [13]): 9.0
- ECHORC herbicidal effect rating [3, 5]: 7.0
- ECHORC herbicidal effect rating [3, 6]: 8.6
- ECHORC herbicidal effect rating [3, 7]: 9.0
- ECHORC herbicidal effect rating [3, 8]: 9.0
- ECHORC herbicidal effect rating [3, 13]: 9.0
- CYPSE herbicidal effect rating [4, 5]: 2.0
- CYPSE herbicidal effect rating [4, 6]: 9.0
- CYPSE herbicidal effect rating [4, 7]: 9.0
- CYPSE herbicidal effect rating [4, 8]: 9.0
- CYPSE herbicidal effect rating [4, 13]: 9.0
